“Also recorded” adds a separate entry of the source.
Columns and labels:
[1] = PK of NHC and EIDD-2801 in mice
[2] = tested on: A/California/07/2009 (H1N1); design: species or system ferrets; settings: in vivo
PK and PD = assay type: in vivo; settings: ferrets
[3] = tested on: ferret lung nuclear (TNFα) and mitochondrial (COX15) mRNAs; settings: in vivo, po, 100 mg/kg
[4] = tested on: A/Wisconsin/67/2005 (H3N2); design: species or system ferrets; settings: in vivo
[5] = Plasma PK in cynomolgus macaques; assay type: in vivo; settings: non-human primates
Ca/09 = assay: cells; assay type: cell-based, human airway epithelia
[6] = tested on: HBTECs mitochondrial (COX1) and nuclear (SDH-A) protein expression
[7] = tested on: Ca/09, Wi/05, and B/Brisbane/60/2008; assay: microbe, parasite or virus in culture; assay type: cell-based, human airway epithelia
in vitro = settings: human
[8] = tested on: well-differentiated human airway epithelia
[9] = tested on: HBTEC nuclear (SDH-A) and mitochondrial (COX1) mRNAs; assay: Transitions in host mRNA of HBTECs; settings: 72 hours

Compound: CC(C)C(=O)OC[C@H]1O[C@@H](n2ccc(NO)nc2=O)[C@H](O)[C@@H]1O [EIDD-2801]
- hydrolysis in vivo after absorption (only free NHC detected in plasma) [1]: efficiently hydrolyzed
- cellular infiltrates in nasal cavities and blood lymphocyte counts [2]: remained unchanged
- duration of fever [2]: shortened; also recorded: significantly (P <0.0001 and P = 0.03, respectively) reduced
- reduction of shed viral titers [2]: ≥ 4 orders of magnitude
- reduction of tissue (nasal turbinate) viral titers [2]: more than 4 orders of magnitude
- relative cytokine and CXCL10 induction [2]: significantly lowered
- shed virus load [2]: dropped by several orders of magnitude; also recorded: significantly (P <0.0001 and P = 0.03, respectively) reduced
- shed virus load in nasal lavages [2]: at or below limit of detection
- time at which fever started to decline [2]: approximately 1.5 days after infection
- viral titers in bronchioalveolar lavages and lung tissue [2]: significantly reduced
- virus burden in nasal turbinates and tracheas [2]: reduction of several orders of magnitude
- virus in lung sections by immunohistochemistry [2]: immunohistochemically undetectable
- oral bioavailability compared to NHC (PK and PD; oral): increased oral bioavailability
- tolerability (phenotypically appreciable adverse effects) (PK and PD; seven b.i.d. oral doses at 100 mg/kg): well tolerated
- drug accumulation on repeat dosing (PK and PD; single versus multi-dose oral b.i.d.): does not lead to drug accumulation
- transition frequencies in nuclear and mitochondrial message versus vehicle [3]: indistinguishable
- reduction of shed viral titers [4]: ≥ 4 orders of magnitude
- shed virus load in nasal lavages [4]: at or below limit of detection
- tissue (nasal turbinate) viral titers [4]: undetectable
- oral bioavailability compared to NHC [5]: increased oral bioavailability

Compound: CCC(CC)O[C@@H]1C=C(C(=O)O)C[C@H](N)[C@H]1NC(C)=O [oseltamivir carboxylate, reference compound]
- EC50 (Ca/09; Homo sapiens, 72 h): 190 nM

Compound: O=c1nc(NO)ccn1[C@@H]1O[C@H](CO)[C@@H](O)[C@H]1O [NHC, N^4-hydroxycytidine]
- apically released virus load (Ca/09): significantly reduced
- impact on mitochondrial versus nuclear protein expression [6]: significantly greater
- EC50 in human epithelia lower than in immortalized cell lines [7]: 25-50 fold
- EC99 [7]: 0.15 to 0.25 µM
- antiviral effect in infected differentiated epithelia [7]: sterilizing
- robust efficacy threshold [7]: approximately 0.2 μM
- EC50 ([7]; Influenza A virus, in Homo sapiens, 72 h): 60 to 80 nM
- CC50 (in vitro): 137000 nM
- cytotoxicity threshold [8]: ~50 µM
- off-target effects (transition mutations in host mRNAs) ([9]; 1.8 μM NHC): no off-target effects
- transition mutations in host mRNAs ([9]; higher NHC concentrations (50 μM, 10 μM)): increased C to U and U to C transitions

Compound: CCOC(=O)C1=C[C@@H](OC(CC)CC)[C@H](NC(C)=O)[C@@H](N)C1 [oseltamivir, oseltamivir-phosphate, reference compound]
- bronchiolar inflammation in lung sections versus EIDD-2801 therapeutic groups [2]: more pronounced
- inhibitory effect on shed virus titer [2]: no significant (P ≥0.13) inhibitory effect

From PMC6848974 (Science translational medicine, 2019)
